Data published in ChEMBL document CHEMBL1131642, “Synthesis and antibacterial activity of O-methyl derivatives of azalide antibiotics: I. 4", 11 and 12-OMe derivatives via direct methylation” (1998).
≈ marks a conversion by molar mass, not a printed value.

Tests used:
Assay type in all cases: functional
Bacillus subtilis = assay: Minimum inhibitory concentration against macrolide susceptible strains of Bacillus subtilis (MB5586)
Staphylococcus aureus = assay: Minimum inhibitory concentration against macrolide susceptible strain of Staphylococcus aureus (MB2865)
Enterococcus faecium = assay: Minimum inhibitory concentration against macrolide susceptible strain of Enterococcus faecium (MB5516)
Streptococcus pneumoniae = assay: Minimum inhibitory concentration against macrolide susceptible strain of Streptococcus pneumoniae (MB3957)
Enterococcus faecalis = assay: Minimum inhibitory concentration against macrolide susceptible strain of Enterococcus faecalis (MB5407)
Streptococcus pyogenes = assay: Minimum inhibitory concentration against macrolide susceptible strain of Streptococcus pyogenes (MB2874)

SMILES | MIC (Bacillus subtilis) [µg/mL] | MIC (Staphylococcus aureus) [µg/mL] | MIC (Enterococcus faecium) [µg/mL] | MIC (Streptococcus pneumoniae) [µg/mL] | MIC (Enterococcus faecalis) [µg/mL] | MIC (Streptococcus pyogenes) [µg/mL]
CC[C@H]1OC(=O)[C@H](C)[C@@H](O[C@H]2C[C@@](C)(OC)[C@@H](OC)[C@@H](C)O2)[C@H](C)[C@@H](O[C@@H]2O[C@H](C)C[C@@H](N(C)C)[C@H]2O)[C@](C)(O)C[C@@H](C)N(C)C[C@H](C)[C@@H](O)[C@]1(C)O | 4 (≈ 5.24 µM) | 8 (≈ 10.5 µM) | 2 (≈ 2.62 µM) | 0.5 (≈ 0.655 µM) | 8 (≈ 10.5 µM) | 0.03 (≈ 0.0393 µM)
CC[C@H]1OC(=O)[C@H](C)[C@@H](O[C@H]2C[C@@](C)(OC)[C@@H](OC)[C@@H](C)O2)[C@H](C)[C@@H](O[C@@H]2O[C@H](C)C[C@@H](N(C)C)[C@H]2O)[C@](C)(O)C[C@@H](C)N(C)C[C@H](C)[C@@H](OC)[C@]1(C)O | 16 (≈ 20.6 µM) | 32 (≈ 41.2 µM) | 16 (≈ 20.6 µM) | 2 (≈ 2.57 µM) | 32 (≈ 41.2 µM) | 0.5 (≈ 0.643 µM)
CC[C@H]1OC(=O)[C@H](C)[C@@H](O[C@H]2C[C@@](C)(OC)[C@@H](OC)[C@@H](C)O2)[C@H](C)[C@@H](O[C@@H]2O[C@H](C)C[C@@H](N(C)C)[C@H]2O)[C@](C)(O)C[C@@H](C)N(C)C[C@H](C)[C@@H](O)[C@]1(C)OC | 4 (≈ 5.15 µM) | 8 (≈ 10.3 µM) | 4 (≈ 5.15 µM) | 1 (≈ 1.29 µM) | 16 (≈ 20.6 µM) | 0.25 (≈ 0.322 µM)
CC[C@H]1OC(=O)[C@H](C)[C@@H](O[C@H]2C[C@@](C)(OC)[C@@H](OC)[C@@H](C)O2)[C@H](C)[C@@H](O[C@@H]2O[C@H](C)C[C@@H](N(C)C)[C@H]2O)[C@](C)(O)C[C@@H](C)CN(C)[C@H](C)[C@@H](OC)[C@]1(C)OC | 8 (≈ 10.1 µM) | 8 (≈ 10.1 µM) | 4 (≈ 5.06 µM) | 1 (≈ 1.26 µM) | 16 (≈ 20.2 µM) | 0.25 (≈ 0.316 µM)
CC[C@H]1OC(=O)[C@H](C)[C@@H](O[C@H]2C[C@@](C)(OC)[C@@H](O)[C@@H](C)O2)[C@H](C)[C@@H](O[C@@H]2O[C@H](C)C[C@@H](N(C)C)[C@H]2O)[C@](C)(O)C[C@@H](C)CN(C)[C@H](C)[C@@H](OC)[C@]1(C)OC | 4 (≈ 5.15 µM) | 8 (≈ 10.3 µM) | 2 (≈ 2.57 µM) | 1 (≈ 1.29 µM) | 16 (≈ 20.6 µM) | 0.12 (≈ 0.154 µM)
CC[C@H]1OC(=O)[C@H](C)[C@@H](O[C@H]2C[C@@](C)(OC)[C@@H](O)[C@@H](C)O2)[C@H](C)[C@@H](O[C@@H]2O[C@H](C)C[C@@H](N(C)C)[C@H]2O)[C@](C)(O)C[C@@H](C)CN(C)[C@H](C)[C@@H](OC)[C@]1(C)O | 1 (≈ 1.31 µM) | 1 (≈ 1.31 µM) | 0.5 (≈ 0.655 µM) | 0.03 (≈ 0.0393 µM) | 8 (≈ 10.5 µM) | 0.03 (≈ 0.0393 µM)
CC[C@H]1OC(=O)[C@H](C)[C@@H](O[C@H]2C[C@@](C)(OC)[C@@H](O)[C@@H](C)O2)[C@H](C)[C@@H](O[C@@H]2O[C@H](C)C[C@@H](N(C)C)[C@H]2O)[C@](C)(O)C[C@@H](C)CN(C)[C@H](C)[C@@H](O)[C@]1(C)OC |  | 1 (≈ 1.31 µM) | 0.25 (≈ 0.328 µM) | 0.03 (≈ 0.0393 µM) | 4 (≈ 5.24 µM) | 0.03 (≈ 0.0393 µM)
CC[C@H]1OC(=O)[C@H](C)[C@@H](O[C@H]2C[C@@](C)(OC)[C@H](O)[C@H](C)O2)[C@H](C)[C@@H](O[C@@H]2O[C@H](C)C[C@H](N(C)C)[C@H]2O)[C@](C)(O)C[C@@H](C)N(C)C[C@H](C)[C@@H](O)[C@]1(C)O | 0.3 (≈ 0.401 µM) | 0.3 (≈ 0.401 µM) | 0.125 (≈ 0.167 µM) | < 0.06 | 2 (≈ 2.67 µM) | < 0.06
CC[C@H]1OC(=O)[C@H](C)[C@@H](O[C@H]2C[C@@](C)(OC)[C@@H](OC)[C@@H](C)O2)[C@H](C)[C@@H](O[C@@H]2O[C@H](C)C[C@@H](N(C)C)[C@H]2O)[C@](C)(O)C[C@@H](C)N(C)C[C@H](C)[C@@H](OC)[C@]1(C)OC | 2 (≈ 2.53 µM) | 32 (≈ 40.5 µM) | 8 (≈ 10.1 µM) | 4 (≈ 5.06 µM) | 32 (≈ 40.5 µM) | 0.5 (≈ 0.632 µM)
CC[C@H]1OC(=O)[C@H](C)[C@@H](O[C@H]2C[C@@](C)(OC)[C@@H](O)[C@H](C)O2)[C@H](C)[C@@H](O[C@@H]2O[C@H](C)C[C@H](N(C)C)[C@H]2O)[C@](C)(O)C[C@@H](C)CN(C)[C@H](C)[C@@H](O)[C@]1(C)O [AZITHROMYCIN] | 1 (≈ 1.34 µM) | 0.5 (≈ 0.668 µM) | 0.25 (≈ 0.334 µM) | < 0.06 | 4 (≈ 5.34 µM) | 0.03 (≈ 0.0401 µM)
